Results taken from patent US20150335738A1 (priority 2012, published 2015).

Tested on: human SIgA in faeces
Format: in vivo

## CC1=C(/C=C/C(C)=C/C=C/C(C)=C/C=C/C=C(C)/C=C/C=C(C)/C=C/C2=C(C)CCCC2(C)C)C(C)(C)CCC1 [Beta-carotene, beta-carotene]
3 days before exercise
  SIgA faeces, 3 days before exercise: 88 micrograms per 100 g faeces
Reference (before exercise) = 100%
  Recovery in faeces: 13%
Day 1 after exercise
  SIgA faeces, day 1 after exercise: 8 micrograms per 100 g faeces
Day 6 after exercise
  SIgA faeces, day 6 after exercise: 11 micrograms per 100 g faeces
